Tests used:
[1] = tested on: MCF-7 cells; experiment: LDH cytotoxicity assay; format: cell-based; details: MCF-7, 25 µM; for cytotoxicity at 25 µM: Homo sapiens, MCF7, 48 h, read-out: % Cytotoxicity (LDH release relative to maximum LDH control); for % Cytotoxicity (LDH release relative to maximum LDH control): 48 h, 25 µM
Text: When living cells treated with a cytotoxic compound, they could either stop growing and dividing, or die through either of two distinct processes i.e. necrosis or apoptosis. Basically, cells undergoing necrosis (accidental cell death) swell and lose membrane integrity before shutting down and releasing their intracellular contents into the surrounding environment. This type of cell death is usually triggered by external factors such as toxic chemical or traumatic physical events. When the cell membranes are damaged or compromised in any way, lactate dehydrogenase (LDH), a soluble yet stable enzyme found inside every living cell, gets released into the surrounding extracellular space. The presence of this enzyme in the culture medium can be used as a cell death marker. The relative amounts of live and dead cells within the medium can then be quantitated by measuring the amount of released LDH using a colorimetric or fluorometric LDH cytotoxicity assay.
Cytotoxicity was assessed with an LDH-cytotoxicity detection kit (Hi media, CCK036), Assays was performed according to assay protocol. Compound was taken at 25 μM concentration. The % of Cytotoxicity was calculated by this formula.
% Cytotoxicity = 100 × A − C/B − C, Where, A = Average absorbance of test. Average absorbance of background control (or vehicle control if applicable), B = Average absorbance of maximum LDH control − Average absorbance of volume correction control C = Average absorbance of untreated control − Average absorbance of background control.
Lactate Dehydrogenase Cell Assay Materials & Methods: (Himedia, product code; […]
Lactate dehydrogenase (LDH) is a cytoplasmic enzyme present in all mammalian cells. Plasma membrane of live cells is impermeable to LDH. However it is rapidly released into the culture medium when plasma membrane is damaged. The quantity of the leaked LDH is used as a measure of cell cytotoxicity. Due to low molecular weight (35kDa) LDH is easily released from the cells even with very minor damage or perturbations in the membrane. This makes the LDH release assay very sensitive.
This Kit has been designed for rapid determination of cell cytotoxicity using an enzyme coupled […]
Lactate Dehydrogenase (LDH) is based on an enzyme coupled reaction in which the LDH released from cells with damaged membrane reduces the tetrazolium dye to a colored formazan product. The reaction takes place in two steps - Step 1:
LDH catalyzes the conversion of lactate to pyruvate via reduction of NAD+ to NADH.
NADH thus generated reduces the tetrazolium dye to a colored formazan product which can be measured spectrophotometrically.
• Kit contents: CCK036(A) LDH reagent 5 x 5ml -20 °C in dark CCK036(B) Lysis solution 5ml -20 °C in dark
CCK036(C) Stop solution 25ml -20 °C in dark
• Cells in appropriate medium
• Adjustable pipettes and a repeat pipettor
• 96-well plate for culturing the cells
• 96-well plate reader capable of measuring the Absorbance at 450nm and more than […]
It is necessary to include different types of controls depending on application of LDH assay.
1. Maximum LDH control: It is recommended to perform maximum LDH estimation to determine total amount of LDH present in the cells.
2. Background control: Significant amount of LDH is present in the serum used for supplementing the culture medium. This contributes to the background absorbance / […]
without cells. Absorbance/fluorescence of background control wells should be subtracted from absorbance / fluorescence values of experimental wells to get corrected
3. Untreated control: Untreated control, also known as vehicle control should be included in the assay to obtain LDH values generated due to the solvent in which test compound is […]
(1 picture or pasted object on this page, not shown here) […]
dissolved. Untreated control wells contain the solvent at a concentration used for dissolving […]
• Preparation of cells: Freshly harvested MCF-7 cells for assay. Seeded in the 96well […]

[2] = tested on: MDA-MB-231 (human breast cancer) cell line; experiment: MTT cell viability assay in MDA-MB-231 cells; format: cell-based; details: Homo sapiens; for viability at 10 µM / viability at 25 µM / viability at 50 µM: MDA-MB-231, 72 h, 72 h, MTT, read-out: Cell Viability (%) ± SD; for viability at 10 µM: MDA-MB-231, 10 µM; for viability at 25 µM: MDA-MB-231, 25 µM; for viability at 50 µM: MDA-MB-231, 50 µM; for IC50: MDA-MB-231, MTT, treated for 48 h, 1, 5, 10, 25 and 50 µM

| Structure (SMILES) | cytotoxicity at 25 µM [1] | % Cytotoxicity (LDH release relative to maximum LDH control) [1] | viability at 10 µM [2] | viability at 25 µM [2] | viability at 50 µM [2] | IC50 [2] |
| --- | --- | --- | --- | --- | --- | --- |
| O=C(/C=C/c1c[nH]c2ccccc12)C[C@@H]1O[C@H](CO)[C@@H](O)[C@H](O)[C@H]1O [Compound 9, (E)-4-(1H-indol-3-yl)-1-((2S,3R,4R,5S,6R)-3,4,5-trihydroxy-6-(hydroxymethyl)tetrahydro-2H-pyran-2-yl)but-3-en-2-one] | 12.9% | 13% | 71.1 ± 10.5% | 54 ± 11.2% | 36.3 ± 4.29% | 30.6 µM |
| O=[N+]([O-])c1ccc2[nH]cc(-c3cc(C[C@@H]4O[C@H](CO)[C@@H](O)[C@H](O)[C@H]4O)no3)c2c1 [Compound 34, (2 R,3 S,4 R,5 R,6 S)-2-(hydroxymethyl)-6-((5-(5-nitro-1H-indol-3-yl)isoxazol-3-yl)methyl) tetrahydro-2H-pyran-3,4,5-triol] | 31.2% | 31% | 68.4 ± 5.36% | 46.1 ± 3.32% | 43.4 ± 0.26% | 22.3 µM |
| OC[C@H]1O[C@@H](Cc2cc(-c3c[nH]c4ccccc34)on2)[C@H](O)[C@@H](O)[C@H]1O [Compound 37, (2 S,3 R,4 R,5 R,6 R)-2-((5-(1H-indol-3-yl)isoxazol-3-yl)methyl)-6-(hydroxymethyl) tetrahydro-2H-pyran-3,4,5-triol] | 36.4% |  | 74.8 ± 10.7% | 76.4 ± 10.4% | 64.4 ± 7.77% |  |
| OC[C@H]1O[C@@H](CC2=NNC(c3c[nH]c4ccccc34)C2)[C@H](O)[C@@H](O)[C@H]1O (stereo partly drawn) [Compound 25, (2 S,3 R,4 R,5 R,6 R)-2-((5-(1H-indol-3-yl)-4,5-dihydro-1H-pyrazol-3-yl)methyl)-6-(hydroxy-methyl)tetrahydro-2H-pyran-3,4,5-triol] | 21.8% | 22% | 97.6 ± 3.36% | 54.2 ± 7.06% | 43.8 ± 13% | 35.5 µM |
| O=C(/C=C/c1c[nH]c2ccc(Cl)cc12)C[C@@H]1O[C@H](CO)[C@@H](O)[C@H](O)[C@@H]1O [Compound 20, (E)-4-(5-chloro-1H-indol-3-yl)-1-((2S,3S,4R,5S,6R)-3,4,5-trihydroxy-6-(hydroxymethyl)tetrahydro-2H-pyran-2-yl)but-3-en-2-one] | 7.78% | 8% | 56.7 ± 23.2% | 54.3 ± 16.3% | 62 ± 4.91% |  |

From article PMC7170901, “Design and efficient synthesis of pyrazoline and isoxazole bridged indole C-glycoside hybrids as potential anticancer agents” (Scientific Reports, 2020)
